Consider seven molecules from patent publication US7338964B2, “2-substituted-1-deaza purine derivatives with adenosine receptor modulating activity” (Solvay Pharmaceuticals, B.V., priority 2004, dated 2008).

The target of data set [1] is T1, human adenosine-A2A receptors (Homo sapiens, UniProt P29274).
T1 construct: expressed in transfected cells; host or cells: HEK-293 cells
The data set can be described thus: In vitro affinity for human adenosine-A2A receptors, [3H]CGS 21680 radioligand binding. The following applies: human recombinant receptors expressed in HEK-293 cells, read-out: Adenosine receptor affinity A2A pKi (converted). As for the experimental part:
Affinity of the compounds for human adenosine-A2A receptors was determined using the receptor binding assay described by D. R. Luthin et al. (Mol. Pharmacol., 47, 307, 1995), using human recombinant receptors expressed in HEK-293 cells, and [^3H]CGS 21680 as radioligand.

The target in data set [2] is T2, human adenosine-A1 receptors (Homo sapiens, UniProt P30542).
T2 construct: expressed in transfected cells; host or cells: CHO cells
T2 sequence (P30542 1-326): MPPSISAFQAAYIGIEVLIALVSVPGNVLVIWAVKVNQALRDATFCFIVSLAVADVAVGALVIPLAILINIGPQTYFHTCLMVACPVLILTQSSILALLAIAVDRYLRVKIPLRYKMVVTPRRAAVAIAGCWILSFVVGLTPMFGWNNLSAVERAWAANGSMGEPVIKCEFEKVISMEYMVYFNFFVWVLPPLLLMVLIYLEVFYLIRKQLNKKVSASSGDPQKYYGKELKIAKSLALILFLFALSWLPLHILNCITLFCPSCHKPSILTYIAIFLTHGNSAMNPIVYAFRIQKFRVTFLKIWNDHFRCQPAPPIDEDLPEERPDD
The data set is described as follows: In vitro affinity for human adenosine-A1 receptors, [3H]DPCPX radioligand binding. The following applies: human recombinant receptors expressed in CHO cells, read-out: Adenosine receptor affinity A1 pKi (converted). As for the experimental part:
Affinity of the compounds for human adenosine-A1 receptors was determined using the receptor binding assay described by A. Townsend-Nicholson and P. R. Schofield (Biol. Chem., 269, 2373, 1994), using human recombinant receptors expressed in CHO cells, and [^3H]DPCPX as radioligand.

Data set [3] concerns the target T3, human adenosine-A3 receptor (Homo sapiens, UniProt P0DMS8).
T3 construct: expressed in transfected cells; membrane preparations
T3 sequence (P0DMS8 1-318): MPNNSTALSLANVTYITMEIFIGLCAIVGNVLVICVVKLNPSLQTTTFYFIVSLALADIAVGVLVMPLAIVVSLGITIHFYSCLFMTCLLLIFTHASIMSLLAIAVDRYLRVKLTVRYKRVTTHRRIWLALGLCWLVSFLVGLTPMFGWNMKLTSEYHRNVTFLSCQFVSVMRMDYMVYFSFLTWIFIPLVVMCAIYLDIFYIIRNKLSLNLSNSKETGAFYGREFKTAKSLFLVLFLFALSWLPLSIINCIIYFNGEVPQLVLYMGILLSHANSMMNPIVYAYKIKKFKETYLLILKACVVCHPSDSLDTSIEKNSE
The data set is described as follows: In vitro affinity for human adenosine-A3 receptors, [125I]-AB-MECA radioligand binding. To be noted: human recombinant (HEK 293) cell membranes, read-out: Adenosine receptor affinity A3 pKi (converted). As for the experimental part:
Affinity of the compounds for human adenosine-A3 receptors was determined using the receptor binding assay described by C. A. Salvatore et al.: “Molecular cloning and characterization of the human A3 adenosine receptor”, Proc. Natl. Acad. Sci. USA, 90, 10365-10369, 1993. Briefly, membrane preparations were obtained from human recombinant (HEK 293) cells in which the human adenosine-A3 receptor was stably expressed. Membranes were incubated at 22° C. for 90 minutes with [^125I]-AB-MECA in the absence or presence of test compounds in a concentration range from 10 μM down to 0.1 nM, diluted in a suitable buffer. Separation of bound radioactivity from free was done by filtration through Packard GF/B glass fiber filters with several washings with ice-cold buffer using a Packard cell harvester. Bound radioactivity was measured with a scintillation counter (Topcount, Packard) using a liquid scintillation cocktail (Microscint 0, Packard). Measured radioactivity was plotted against the concentration of the displacing test compound and displacement curves were calculated by four-parameter logistic regression, resulting in IC50 values, i.e. that concentration of displacing compound by which 50% of the radioligand is displaced. […]

One may read the melting point as the temperature of the solid-liquid transition.

T1 sequence (P29274 whole entry): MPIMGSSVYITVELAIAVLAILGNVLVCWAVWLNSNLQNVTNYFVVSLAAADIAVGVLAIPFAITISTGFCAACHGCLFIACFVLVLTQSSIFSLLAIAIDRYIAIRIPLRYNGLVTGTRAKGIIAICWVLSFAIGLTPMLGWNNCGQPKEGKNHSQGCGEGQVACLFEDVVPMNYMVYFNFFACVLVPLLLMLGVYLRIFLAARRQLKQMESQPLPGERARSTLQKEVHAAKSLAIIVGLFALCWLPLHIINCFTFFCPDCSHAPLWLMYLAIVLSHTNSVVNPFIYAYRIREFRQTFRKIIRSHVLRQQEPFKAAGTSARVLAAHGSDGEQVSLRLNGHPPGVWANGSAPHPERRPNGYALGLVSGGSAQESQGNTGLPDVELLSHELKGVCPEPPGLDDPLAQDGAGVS

Molecule `Cn1cnc2c(N)cc(N3OC4C=CC3CC4)nc21` (stereo not drawn) [Compound 1, 2-(2-oxa-3-azabicyclo[2.2.2]oct-5-en-3-yl)-6-amino-9-methyl-1-deazapurine] showed a melting point of 169.9 °C. Moreover, the Ki in data set [1] is 15800 nM.

With `Cn1cnc2c(N)cc(N[C@H]3CC[C@@H](O)CC3)nc21` [Compound 2, 2-(cis-4-hydroxycyclohexylamino)-6-amino-9-methyl-1-deazapurine], the Ki in data set [1] is 7940 nM.

`Cn1cnc2c(N)cc(NN=CCc3ccccc3)nc21` [Compound 3, 2-(2-phenylethyl-hydrazone)-6-amino-9-methyl-1-deazapurine] registered a melting point of 182.1 °C. For the same molecule, the Ki in data set [2] is 2.51 µM. In data set [1], the Ki was 3160 nM.

Consider `Cn1cnc2c(N)cc(NN=Cc3ccccc3)nc21` [Compound 4, 2-benzylhydrazone-6-amino-9-methyl-1-deazapurine], for which the melting point fell in the range of 231.7 to 232.8 °C. Besides, in data set [3], the Ki is 2510 nM. For the same molecule, the Ki in data set [2] was 3.98 µM. Moreover, the Ki in data set [1] was 1260 nM.

For `COc1ccc(C=NNc2cc(N)c3ncn(C)c3n2)cc1` [Compound 5, 2-(4-methoxy-2-benzylhydrazon)-6-amino-9-methyl-1-deazapurine], the Ki in data set [1] was 1000 nM.

Turning to `COc1ccc(C=NNc2cc(N)c3ncn(C)c3n2)c(OC)c1` [Compound 6, 2-(2,4-dimethoxy-2-benzylhydrazon)-6-amino-9-methyl-1-deazapurine], the Ki in data set [2] is 6.31 µM; in data set [1], 2000 nM.

Regarding `Cn1cnc2c(N)cc(NN=CC3CCCCC3)nc21` [Compound 8, 2-(cyclohexylmethyl-hydrazone)-6-amino-9-methyl-1-deaza-purine], the Ki in data set [2] is 3.16 µM; in data set [1], 2000 nM.
